The target in series [1] is T1, Glutathione hydrolase 1 proenzyme (Homo sapiens, UniProt P19440). The series can be described thus: Inhibition of GGT1 (unknown origin) assessed as GSH hydrolysis by measuring inhibition constant.
Series [2] concerns the target T1, Glutathione hydrolase 1 proenzyme. In words: Inhibition of GGT1 (unknown origin) transpeptidation assessed as inhibition constant using L-GpNA as substrate in presence of Gly-Gly.
Series [3] is described as follows: In-vivo inhibition of GGT1 in mouse assessed as increase in GSSG level in plasma at 0.03 mg measured after 1 hrs. It counts as functional. To be noted: values are per cent of control.
Series [4] can be described thus: In-vivo inhibition of GGT1 in mouse assessed as increase in cystine-NEM level in plasma measured after 1 hrs. It counts as functional.
A short description of series [5]: In-vivo inhibition of GGT1 in mouse assessed as increase in GSSG level in plasma at 0.03 mg measured after 6 hrs. The format is functional. To be noted: values are per cent of control.
Series [6] is described as follows: Volume of distribution at steady in C57BL/6 mouse at 0.3 mg/kg, ip. It counts as ADME, organism-based. To be noted: in vivo.
Series [7] is described as follows: In-vivo inhibition of GGT1 in mouse assessed as increase in total GSH level in plasma at 0.03 mg measured after 6 hrs. The format is functional. To be noted: values are per cent of control.
In series [8] the test system is Mus musculus. The series can be described thus: In-vivo inhibition of GGT1 in mouse assessed as decrease in total cysteine level in plasma at 0.03 mg measured after 48 hrs. The format is functional.
Series [9] can be described thus: In-vivo inhibition of GGT1 in mouse assessed as increase in GSH level in plasma at 0.03 to 1 mg measured after 1 hrs. The note with it: dose 0.03-1 mg, values are per cent of control. The format is functional.
Series [10] in a line: In-vivo inhibition of GGT1 in mouse assessed as decrease in GSH level in plasma at 0.03 mg measured at 24 hrs. It counts as functional.
The test system of series [11] is Mus musculus. In words: In-vivo inhibition of GGT1 in mouse assessed as effect on GSH level in plasma measured at 0.5 to 48 hrs. It counts as functional. To be noted: dose 0.2-1 mg, time 0.5-48 hrs.
Series [12] can be described thus: Inhibition of bovine GGT1 transpeptidation assessed as inhibition constant. On the set-up: species or system Bos taurus.
Series [13] can be described thus: Clearance in C57BL/6 mouse at 0.3 mg/kg, ip. It counts as ADME, organism-based. To be noted: in vivo.
A short description of series [14]: In-vivo inhibition of GGT1 in mouse assessed as increase in GSH-NEM level in plasma at 0.03 mg measured after 6 hrs. To be noted: values are per cent of control. It counts as functional.
The nature of series [15]: In-vivo inhibition of GGT1 in mouse assessed as decrease in GSH level in plasma at 0.03 mg measured at 24 to 48 hrs. The note with it: time 24-48 hrs. The format is functional.
The subject of series [16] is Mus musculus. In words: In-vivo inhibition of GGT1 in mouse assessed as effect on cysteine level in plasma at 0.2 to 1 mg. The format is functional. To be noted: dose 0.2-1 mg, time 0.5-48 hrs, TDE = time-dependent effect.
Series [17] can be described thus: In-vivo inhibition of GGT1 in mouse assessed as decrease in cysteine level in plasma at 0.03 mg measured after 1 hrs. It counts as functional.
The nature of series [18]: In-vivo inhibition of GGT1 in mouse assessed as increase in cystine level in plasma measured after 1 hrs. The format is functional.
Series [19] is described as follows: Half life in C57BL/6 mouse at 0.3 mg/kg, ip. To be noted: in vivo. It counts as ADME, organism-based.
Series [20] in a line: In-vivo inhibition of GGT1 in mouse assessed as decrease in cystine level in plasma at 0.03 mg measured after 1 hrs. It counts as functional.
Series [21] in a line: In-vivo inhibition of GGT1 in mouse assessed as decrease in GSH level in plasma at 0.03 mg measured at 48 hrs. The format is functional.
The nature of series [22]: In-vivo inhibition of GGT1 in mouse assessed as decrease in GSH level in plasma at 0.03 mg measured after 1 hr. The format is functional.
Series [23] has as its system Mus musculus. In words: In-vivo inhibition of GGT1 in mouse assessed as effect on GSH level in plasma at 0.2 to 1 mg. The note with it: dose 0.2-1 mg, time 0.5-48 hrs, TDE = time-dependent effect. The format is functional.
Series [24] in a line: Cmax in C57BL/6 mouse at 0.3 mg/kg, ip. The note with it: in vivo. The format is ADME, organism-based. Details: dose 0.3 mg/kg, route ip.
Series [25] can be described thus: Inhibition of bovine GGT1 assessed as GSH hydrolysis by measuring inhibition constant. On the set-up: species or system Bos taurus.
Series [26] concerns Mus musculus. In words: In-vivo inhibition of GGT1 in mouse assessed as effect on GSSG level in plasma measured at 0.5 to 48 hrs. It counts as functional. The note with it: dose 0.2-1 mg, time 0.5-48 hrs.
The test system of series [27] is Mus musculus. The series can be described thus: In-vivo inhibition of GGT1 in mouse assessed as effect on GSSG level in plasma at 0.2 to 1 mg. The format is functional. The note with it: dose 0.2-1 mg, time 0.5-48 hrs, TDE = time-dependent effect.
Series [28] in a line: In-vivo inhibition of GGT1 in mouse assessed as decrease in total cysteine level in plasma at 0.03 mg measured after 1 hrs. The format is functional.
Series [29] relates to Mus musculus. The series can be described thus: In-vivo inhibition of GGT1 in mouse assessed as effect on cysteine level in plasma measured at 0.5 to 48 hrs. The note with it: dose 0.2-1 mg, time 0.5-48 hrs. It counts as functional.
Series [30] in a line: MRT in C57BL/6 mouse at 0.3 mg/kg, ip. To be noted: in vivo. It counts as ADME, organism-based.
The subject of series [31] is Mus musculus. In words: In-vivo inhibition of GGT1 in mouse assessed as increase in GSH level in plasma at 0.03 mg measured after 48 hrs. It counts as functional.
For series [32], the target named is T1, Glutathione hydrolase 1 proenzyme. In words: Inhibition of GGT1 (unknown origin) transpeptidation at 37500 uM using L-GpNA as substrate in presence of Gly-Gly relative to control.
The target is the same in series [33]. In words: Inhibition of GGT1 (unknown origin) assessed as GSH hydrolysis at […] relative to control.
Series [34] shares this target. The series can be described thus: Inhibition of GGT1 (unknown origin) transpeptidation at 9100 uM using L-GpNA as substrate in presence of Gly-Gly relative to control.

Each structure is given as a SMILES string. Active and inactive are the calls of the source. The calls are words filed in the database; no cut-off is given here.

In general, Ki refers to the dissociation constant of the complex between target and ligand, obtained from inhibition or displacement. Broadly, the inhibition is the change of the read-out against control, counted positive when it falls. For orientation: CL/F means the apparent clearance, not corrected for the fraction that reaches the circulation. For orientation: half-life means how long it takes for the measured level to halve. High values mean slow decline, low ones rapid decline. By Cmax is commonly meant the maximum level reached in the sampled fluid or tissue. For orientation: MRT means a mean duration of stay, worked out from the concentration-time curve.

T1 sequence (P19440 1-380 limits assumed): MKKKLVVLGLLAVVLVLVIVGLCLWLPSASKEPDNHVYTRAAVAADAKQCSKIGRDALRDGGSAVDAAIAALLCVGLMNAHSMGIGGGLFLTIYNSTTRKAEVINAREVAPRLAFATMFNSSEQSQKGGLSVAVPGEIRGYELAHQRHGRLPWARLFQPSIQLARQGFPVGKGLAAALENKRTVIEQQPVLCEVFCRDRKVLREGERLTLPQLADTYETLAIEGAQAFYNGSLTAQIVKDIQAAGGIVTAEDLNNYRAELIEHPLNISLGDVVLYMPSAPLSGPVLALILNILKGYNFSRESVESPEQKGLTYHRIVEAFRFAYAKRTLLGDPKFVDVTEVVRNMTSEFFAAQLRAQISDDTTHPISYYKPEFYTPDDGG
T1 sequence (P19440 381-569 limits assumed): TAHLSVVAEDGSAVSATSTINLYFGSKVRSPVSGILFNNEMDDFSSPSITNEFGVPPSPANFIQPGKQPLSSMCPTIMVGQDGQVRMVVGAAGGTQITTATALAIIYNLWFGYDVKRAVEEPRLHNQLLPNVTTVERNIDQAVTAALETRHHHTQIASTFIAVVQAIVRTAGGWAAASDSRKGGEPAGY

`N[C@@H](CCCB(O)O)C(=O)O`: the figures for the Ki in series [1] and in series [2] were > 4000 µM and 3820 µM, respectively.
For `N[C@@H](CCB(O)O)C(=O)O`, the “response, % of control” value in [3] is on record as 1000%; in [5], 1500%; in [7], 1000%; in series [9] it was 250%; in series [14], 500%. Further, the ID50 is 0.22 mg in [4] and 0.002 mg in series [18]. Besides, the Vdss in series [6] came out at 20.76 mL. The inhibition result with Mus musculus [8] and in the series with Mus musculus [31] was “Active” each time. Besides, the “inhibition (INH)” value in [10] was <50%; in series [15], 33%; in series [17], 25%; in series [20], 75%; in series [21], 89%; in series [22] it was 85%. Moreover, the “inhibition (INH)” value in [28] amounted to 35%. The inhibition result in the series with Mus musculus [11] was “Dose-Dependent Effect”; in the series on Mus musculus [16], “Tde”; with Mus musculus [23], “Tde”; in the series with Mus musculus [26], “Dose-Dependent Effect”; in the series on Mus musculus [27] it was “Tde”; in the series on Mus musculus [29], “Dose-Dependent Effect”. For the same compound, the Ki in [12] stood at 0.005 µM; in series [25] it was 0.025 µM; in series [2], 0.005 µM. Also, the CL/F in series [13] was 0.0612 mL/min. The compound also showed a half-life in [19] of 3.92 h. In series [24], this compound gave a Cmax of 15300 ng/mL. Further, the MRT in [30] turned out to be 5.42 h.
For `N[C@H](CCB(O)O)C(=O)O`, the Ki in series [12] was 0.045 µM; in series [25] it was 0.077 µM.
Turning to `O=C(O)CCCB(O)O`, the inhibition in [32] and in series [33] was 50% in each case.
For the compound `CCC(N)(CCB(O)O)C(=O)O` (racemic), the results for the Ki in [1] and in series [2] were 874 µM and 444 µM, respectively.
Turning to `NCCCB(O)O`, in series [34], the inhibition entry is “inactive”. Further, the inhibition constant Ki in [1] was > 5000 µM.
In the case of `CCCC(N)(CCB(O)O)C(=O)O` (racemic), the Ki in series [1] was 703 µM; in [2] it was 198 µM.
Consider `CC(N)(CCB(O)O)C(=O)O` (racemic), for which the Ki came to 2.8 µM in [1] and 0.92 µM in series [2].
Consider `COc1ccc(Cc2nnc(NS(=O)(=O)c3ccccc3)s2)cc1`, for which the Ki in series [2] was determined as 68 µM.

For the origin of these results see ChEMBL document CHEMBL5365410, “SAR of L-ABBA analogs for GGT1 inhibitory activity and L-ABBA's effect on plasma cysteine and GSH species” (Bioorg Med Chem Lett, 2023).
